Patent publication US20230348398A1 (Hoffmann-La Roche Inc., priority 2020, published 2023)

What follows are compounds tested against human cGAS (residues 161-522) (Homo sapiens (Human), UniProt Q8N884) (assay: Malachite Green assay to measure cGAS activity (coupled enzymatic assay, phosphate detection)). Conditions: recombinant human cGAS (residues 161-522) 25 nM, 80 μM GTP, 100 nM ISD, 4 hour at RT, absorbance 620 nm.
Type: biochemical
Procedure: Malachite Green Assay to Measure cGAS Activity Compounds were tested for cGAS inhibition in a coupled enzymatic assay based on Phosphate detection by Malachite Green. Final assay conditions were 20 mM TRIS pH 7.5 (Applichem), 5 mM MgCl2 (Sigma) and 0.01% BSA (Sigma) supplemented with […] (Sigma), 80 μM GTP (Sigma) and 100 nM Interferon Stimulating DNA (ISD) (Microsynth). Recombinantly expressed purified human cGAS (residues 161-522) was used at 25 nM. All compounds were prepared as 10 mM stock solutions in DMSO and a 16 pt dilution series in DMSO with a dilution factor of 2.5 was prepared. 1 μL of DMSO dilution series was transferred to 32.3 μL reaction buffer, mixed by pipetting up/down, spun for 1 minute at 3000 rpm and was visually inspected for precipitation. 5 μL of 3-fold enzyme stock solution were transferred to an empty 384-well Black/Clear Flat Bottom Polystyrene NBS (Corning) rows 3-24. Rows 1-2 were filled with assay buffer. Plates were spun 10 seconds at 1000 rpm (164×g). 5 μL of compound intermediate dilution was added and mixed by pipetting up/down to rows 3-24. Rows 1-2 were filled with 3.1% DMSO assay buffer. Plates were spun 10 seconds at 1000 rpm (164×g). 5 μL 3-fold Nucleotide/DNA mix was added to all wells to start the reaction. Plates were spun 10 seconds at 1000 rpm (164×g) and incubated for 4 hour at room temperature (RT) in the dark. 5 μL 4 U/mL PPase (Sigma) were added to all wells. Plates spun 10 seconds at 1000 rpm (164×g). 10 μL BioMol green Solution (Enzo Life Sciences) was added to all wells. Plates spun 10 seconds at 1000 rpm (164×g) and incubated 30 minutes at RT in the dark. Absorbance data was collected 620 nm on an EnVision Multilable Reader (Perkin Elmer) and the following measurement settings were used: excitation filter photometric was 620 nm; excitation from the top; measurement height was 1 mm; number of flashes was 30; number of flashes integrated was 1. All plates are checked for abnormalities and outliers in the Blank Control (no protein, row 1) and the Neutral Control (no compound, row 2) are excluded using the 3*SD rule. Data was normalized to 0 and 100% by Blank and Neutral Control and each curve was fitted and judged using the 4 parameter logistic equation to determine the IC50 for cGAS inhibition. Table 1 provides IC50 values (μM) for cGAS inhibition obtained for particular examples of the present invention as measured by the above-described assay.

Chain of human cGAS (residues 161-522) (Q8N884 161-522): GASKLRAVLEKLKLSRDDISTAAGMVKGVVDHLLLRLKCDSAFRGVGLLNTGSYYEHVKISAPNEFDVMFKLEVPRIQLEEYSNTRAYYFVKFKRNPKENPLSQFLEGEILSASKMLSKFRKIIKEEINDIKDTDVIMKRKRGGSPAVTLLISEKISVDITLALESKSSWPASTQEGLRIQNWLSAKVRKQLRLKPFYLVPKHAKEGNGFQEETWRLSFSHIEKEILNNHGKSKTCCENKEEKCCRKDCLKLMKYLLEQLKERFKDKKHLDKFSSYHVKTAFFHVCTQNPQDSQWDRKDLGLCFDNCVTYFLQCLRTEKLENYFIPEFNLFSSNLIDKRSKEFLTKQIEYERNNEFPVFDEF

Going from `Cc1ccc(-c2cc(C(=O)O)c3nc(CN4CCN(CC(F)(F)F)CC4)[nH]c3c2)c(Cl)c1` [Example 8, 6-(2-Chloro-4-methylphenyl)-2-((4-(2,2,2-trifluoroethyl)piperazin-1-yl)methyl)-1H-benzo[d]imidazole-4-carboxylic acid] to `Cc1ccc(-c2cc(C(=O)O)c3nc(CN4CCN(C)CC4)[nH]c3c2)c(Cl)c1` [Example 22, 6-(2-Chloro-4-methylphenyl)-2-[(4-methylpiperazin-1-yl)methyl]-1-benzimidazole-4-carboxylic acid], the IC50 falls from 0.59 µM to 0.13 µM (4.5-fold). The second is the more potent here.

`Cc1ccc(-c2cc(C(=O)O)c3nc(Cc4ccc(Cl)cc4)[nH]c3c2)c(Cl)c1` [Example 27, 6-(2-Chloro-4-methylphenyl)-2-[(4-chlorophenyl)methyl]-1H-benzimidazole-4-carboxylic acid] and `Cc1ccc(-c2cc(C(=O)O)c3nc(Cc4ccccc4)[nH]c3c2)c(Cl)c1` [Example 26, 2-Benzyl-6-(2-chloro-4-methylphenyl)-1H-benzo[d]imidazole-4-carboxylic acid] are within 1.5-fold of each other in IC50: 1.48 µM for the first, 1.02 µM for the second.

`Cc1ccc(-c2cc(C(=O)O)c3nc(CN4CCN(C5CC5)CC4)[nH]c3c2)c(Cl)c1` [Example 9, 6-(2-Chloro-4-methylphenyl)-2-[(4-cyclopropylpiperazin-1-yl)methyl]-1H-benzimidazole-4-carboxylic acid] and `Cc1ccc(-c2cc(C(=O)O)c3nc(CN4CCC(O)CC4)[nH]c3c2)c(Cl)c1` [Example 21, 6-(2-Chloro-4-methylphenyl)-2-[(4-hydroxypiperidin-1-yl)methyl]-1H-benzimidazole-4-carboxylic acid] are within 1.5-fold of each other in IC50: 0.38 µM for the first, 0.41 µM for the second.

`Cc1ccc(-c2cc(C(=O)O)c3nc(NCc4ccccc4)[nH]c3c2)c(Cl)c1` [Example 31, 2-(Benzylamino)-6-(2-chloro-4-methylphenyl)-1H-benzo[d]imidazole-4-carboxylic acid] and `Cc1ccc(-c2cc(C(=O)O)c3nc(Nc4ccccc4)[nH]c3c2)c(Cl)c1` [Example 14, 6-(2-Chloro-4-methylphenyl)-2-(phenylamino)-1H-benzo[d]imidazole-4-carboxylic acid] are within 1.5-fold of each other in IC50: 0.84 µM for the first, 1.16 µM for the second.

`Cc1ccc(-c2cc(C(=O)O)c3nc(CN4CCOCC4)[nH]c3c2)c(Cl)c1` [Example 28, 6-(2-Chloro-4-methylphenyl)-2-(morpholin-4-ylmethyl)-1H-benzimidazole-4-carboxylic acid] and `Cc1ccc(-c2cc(C(=O)O)c3nc(CN4CCCCC4)[nH]c3c2)c(Cl)c1` [Example 24, 6-(2-Chloro-4-methylphenyl)-2-(piperidin-1-ylmethyl)-1H-benzimidazole-4-carboxylic acid] are within 1.5-fold of each other in IC50: 0.35 µM for the first, 0.36 µM for the second.

Going from `Cc1ccc(-c2cc(C(=O)O)c3nc(CNc4ccccc4)[nH]c3c2)c(Cl)c1` [Example 25, 2-(Anilinomethyl)-6-(2-chloro-4-methylphenyl)-1H-benzimidazole-4-carboxylic acid] to `Cc1ccc(-c2cc(C(=O)O)c3nc(CN(C)c4ccccc4)[nH]c3c2)c(Cl)c1` [Example 17, 6-(2-Chloro-4-methylphenyl)-2-[(N-methylanilino)methyl]-1H-benzimidazole-4-carboxylic acid], the IC50 rises from 0.69 µM to 1.23 µM (1.8-fold). The first is the more potent here.

First: Cc1ccc(-c2cc(C(=O)O)c3nc(CN4CCN(c5ccccc5)CC4)[nH]c3c2)c(Cl)c1 [Example 19, 6-(2-Chloro-4-methylphenyl)-2-[(4-phenylpiperazin-1-yl)methyl]-1H-benzimidazole-4-carboxylic acid]
Second: Cc1ccc(-c2cc(C(=O)O)c3nc(CN4CCN(Cc5ccccc5)CC4)[nH]c3c2)c(Cl)c1 [Example 18, 2-[(4-Benzylpiperazin-1-yl)methyl]-6-(2-chloro-4-methylphenyl)-1H-benzimidazole-4-carboxylic acid]
The IC50 of the first is 8.9-fold higher: 1.25 µM for the first, 0.14 µM for the second.

Going from `Cc1ccc(-c2cc(C(=O)O)c3nc[nH]c3c2)c(Cl)c1` [Example 3, 6-(2-Chloro-4-methylphenyl)-1H-benzo[d]imidazole-4-carboxylic acid] to `Cc1cc(Cl)ccc1-c1cc(C(=O)O)c2nc[nH]c2c1` [Example 6, 6-(4-Chloro-2-methylphenyl)-1H-benzo[d]imidazole-4-carboxylic acid], the IC50 rises from 0.55 µM to 2.08 µM (3.8-fold).

`O=C(O)c1cc(-c2ccc(C(F)(F)F)cc2Cl)cc2[nH]cnc12` [Example 5, 6-(2-Chloro-4-(trifluoromethyl)phenyl)-1H-benzo[d]imidazole-4-carboxylic acid] and `O=C(O)c1cc(-c2ccc(C3CC3)cc2Cl)cc2[nH]cnc12` [Example 1, 6-(2-Chloro-4-cyclopropylphenyl)-1-benzimidazole-4-carboxylic acid] are within 1.5-fold of each other in IC50: 3.26 µM for the first, 4.68 µM for the second.

Going from `Cc1ccc(-c2cc(C(=O)O)c3nc(CN4CCC(F)(F)CC4)[nH]c3c2)c(Cl)c1` [Example 15, 6-(2-Chloro-4-methylphenyl)-2-[(4,4-difluoropiperidin-1-yl)methyl]-1H-benzimidazole-4-carboxylic acid] to `CC(=O)N1CCN(Cc2nc3c(C(=O)O)cc(-c4ccc(C)cc4Cl)cc3[nH]2)CC1` [Example 16, 2-[(4-Acetylpiperazin-1-yl)methyl]-6-(2-chloro-4-methylphenyl)-1H-benzimidazole-4-carboxylic acid], the IC50 rises from 0.26 µM to 1.51 µM (5.8-fold).

`CCN(CC)Cc1nc2c(C(=O)O)cc(-c3ccc(C)cc3Cl)cc2[nH]1` [Example 23, 6-(2-Chloro-4-methylphenyl)-2-(diethylaminomethyl)-1-benzimidazole-4-carboxylic acid] and `Cc1ccc(-c2cc(C(=O)O)c3nc(CN(C)C)[nH]c3c2)c(Cl)c1` [Example 29, 6-(2-Chloro-4-methylphenyl)-2-[(dimethylamino)methyl]-1H-benzimidazole-4-carboxylic acid] are within 1.5-fold of each other in IC50: 0.48 µM for the first, 0.59 µM for the second.

`Cc1ccc(-c2cc(C(=O)O)c3nc(C(F)(F)F)[nH]c3c2)c(Cl)c1` [Example 30, 6-(2-Chloro-4-methylphenyl)-2-(trifluoromethyl)-1H-benzimidazole-4-carboxylic acid] and `Cc1ccc(-c2cc(C(=O)O)c3nc(C)[nH]c3c2)c(Cl)c1` [Example 32] are within 1.5-fold of each other in IC50: 3.02 µM for the first, 2.41 µM for the second.

Compared with `Cc1cc(Cl)c(-c2cc(C(=O)O)c3nc[nH]c3c2)cc1F` [Example 2, 6-(2-Chloro-5-fluoro-4-methylphenyl)-1H-benzo[d]imidazole-4-carboxylic acid], `CCOc1ccc(-c2cc(C(=O)O)c3nc[nH]c3c2)c(Cl)c1` [Example 4, 6-(2-Chloro-4-ethoxyphenyl)-1H-benzo[d]imidazole-4-carboxylic acid] is 8.1-fold higher in IC50: 0.54 µM for the first, 4.37 µM for the second. The first is the more potent here.

Going from `Cc1ccc(-c2cc(C(=O)O)c3nc(CN4CCNC(=O)C4)[nH]c3c2)c(Cl)c1` [Example 20, 6-(2-Chloro-4-methylphenyl)-2-[(3-oxopiperazin-1-yl)methyl]-1H-benzimidazole-4-carboxylic acid] to `Cc1ccc(-c2cc(C(=O)O)c3nc(CN4CCN(C)CC4=O)[nH]c3c2)c(Cl)c1` [Example 12, 6-(2-Chloro-4-methylphenyl)-2-[(4-methyl-2-oxopiperazin-1-yl)methyl]-1H-benzimidazole-4-carboxylic acid], the IC50 rises from 0.59 µM to 1.14 µM (1.9-fold).

First: Cc1ccc(-c2cc(C(=O)O)c3nc(CN4CCN5C(=O)CCC5C4)[nH]c3c2)c(Cl)c1 (centres unmarked) [Example 7, 6-(2-Chloro-4-methylphenyl)-2-[(6-oxo-1,3,4,7,8,8a-hexahydropyrrolo[1,2-a]pyrazin-2-yl)methyl]-1H-benzimidazole-4-carboxylic acid]
Second: Cc1ccc(-c2cc(C(=O)O)c3nc(CN4CCNC(C(F)(F)F)C4)[nH]c3c2)c(Cl)c1 (centres unmarked) [Example 11, 6-(2-Chloro-4-methylphenyl)-2-[[3-(trifluoromethyl)piperazin-1-yl]methyl]-1H-benzimidazole-4-carboxylic acid]
The IC50 of the first is 2.3-fold lower: 0.26 µM for the first, 0.6 µM for the second.

`Cc1ccc(-c2cc(C(=O)O)c3nc(CO)[nH]c3c2)c(Cl)c1` [Example 13, 6-(2-Chloro-4-methylphenyl)-2-(hydroxymethyl)-1H-benzimidazole-4-carboxylic acid] and `Cc1ccc(-c2cc(C(=O)O)c3nc(CN4CCN(Cc5ccccc5)C(=O)C4)[nH]c3c2)c(Cl)c1` [Example 10, 2-[(4-Benzyl-3-oxopiperazin-1-yl)methyl]-6-(2-chloro-4-methylphenyl)-1H-benzimidazole-4-carboxylic acid] are within 1.5-fold of each other in IC50: 0.55 µM for the first, 0.51 µM for the second.
